Experimental data taken from PMC10812672, “Short Antimicrobial Peptide Derived from the Venom Gland Transcriptome of Pamphobeteus verdolaga Increases Gentamicin Susceptibility of Multidrug-Resistant Klebsiella pneumoniae” (Antibiotics, 2023).
Ends that are not written are not given here.

How the values were obtained:
[1] = test system: multidrug-resistant (MDR) strain of K. pneumoniae, clinical isolate; assay: microbe, parasite or virus in culture; type: cell-based, Klebsiella pneumoniae; settings: Klebsiella pneumoniae, read-out: maximum growth inhibition
Procedure: A multidrug-resistant (MDR) strain of K. pneumoniae was identified and isolated from a tertiary-level hospital in Medellin, Colombia, using the VITEK-2 system (bioMérieux, Marcy-l’Étoile, France). The MDR strain was evaluated against several antibiotics at concentrations of 1.56–100 μM. […] In contrast, the strain was susceptible to doxycycline (Supplementary Figure S7g) and chloramphenicol (Supplementary Figure S7h), with MICs of 50 μM and 100 µM, respectively (Table 3). […] All of P. verdolaga’s AMPs were evaluated against the clinical isolate at concentrations of 1.56–200 µM (Supplementary Figure S8). […] A growth inhibition kinetic assay was conducted. […] All of P. verdolaga’s peptides at 100 μM induced morphological changes in the MDR K. pneumoniae, indicating membrane interactions, even though no significant inhibition was observed (Supplementary Figure S9).
The evaluation of the antimicrobial activity of the peptides was conducted using the CLSI’s broth microdilution method for bacterial susceptibility testing. For the screening phase, peptides were evaluated at a single 30 μM concentration, in triplicate and in three independent assays, against the E. coli ATCC® 8739, E. coli ATCC® 25922, S. aureus ATCC® 6538, or S. aureus ATCC® 29213 reference USP and CLSI strains. For the determination of MIC, MBC, or IC50, peptides or antibiotics were evaluated in concentrations between 1.56–200 µM. These evaluations were conducted in triplicate and in three independent assays, against the E. coli ATCC® 25922, S. aureus ATCC® 29213, E. faecalis ATCC® 49532, P. aeruginosa ATCC® 9027, and K. pneumoniae ATCC® BAA-1705, or the clinically isolated MDR strain. In detail, 1 mL of a glycerol stock solution of the ATCC® or clinically isolated bacterial strain was added to 9 mL of Mueller-Hinton Broth and incubated for 18 h, 180 rpm and 37 °C (Incubator 1000, Heidolph Instruments, Schwabach, Germany). After the incubation, 1 mL of the previous solution was transferred to a new recipient containing 9 mL of fresh Mueller-Hinton broth and incubated for 4 h, 180 rpm and 37 °C (Incubator 1000, Heidolph Instruments, Schwabach, Germany). During the second incubation, the peptides or the antibiotics were dissolved in PBS pH 7.20 in concentrations between 19.53–2500 µM (MC5 Micro Balance, Sartorius AG, Göttingen, Germany). An amount of 10 µL of either peptide or antibiotic was dispensed in triplicate in 96-well flat bottom culture plates, along with 10 µL of PBS (Negative activity control), BTM-P1 (Positive activity control), or 10 µL of Mueller-Hinton broth (Blank); then, 110 µL of Mueller-Hinton broth was poured in all wells. Following this, the bacteria were suspended in Mueller-Hinton broth up to a concentration of approximately 1.50 × 10^8 CFU/mL, as measured by optical density at 600 nm between 0.06 to 0.11 (0.5 McFarland standard), in a Multiskan SkyHigh spectrophotometer (ThermoFisher Scientific, Waltham, MA, USA). Amounts of 5 µL of the 1.50 × 10^8 CFU/mL suspension were added to each well (except for the blank) for a final well concentration of approximately 6 × 10^6 CFU/mL. The plate was incubated for 24 h at 37 °C (BE 500, Memmert GmbH, Büchenbach, Germany) and optical density was measured at 600 nm in a Multiskan SkyHigh spectrophotometer (ThermoFisher Scientific, Waltham, MI, USA). Following the measurement of optical density, plates were visually inspected to determine the MIC. Subsequently, 100 µL of the concentration associated to the MIC and 100 µL of the next higher concentration were added to Petri dishes containing Mueller-Hinton Agar. The dishes were then incubated for 24 h at 37 °C (BE 500, Memmert GmbH, Büchenbach, Germany). After incubation, the Petri dishes were visually inspected, and the MBC was determined in the absence of growth. IC50 values were interpolated from regressions with correlation values above 0.70. […]

E. coli ATCC® 25922 [2] = type: cell-based, Escherichia coli; settings: CLSI broth microdilution, Mueller-Hinton broth, peptide 30 µM, ~6 × 10^6 CFU/mL, 24 h 37 °C, OD600; triplicate, three independent assays; NA = no activity
Procedure: (§1) Activity screening was conducted using the broth microdilution method at a fixed peptide concentration of 30 µM against E. coli ATCC® 8739 and 25922, as well as S. aureus ATCC® 6538 and 29213. The bacterial density used for screening was approximately 6 × 10^6 CFU/mL [30]. Peptide activity measurements were conducted in terms of the growth inhibition percentage. No dose-response curves were generated during the screening phase as a resource optimization strategy in the initial activity evaluation. […] For S. aureus ATCC® 6538 and S. aureus ATCC® 29213, growth inhibition ranged from 0% to 140% and 0% to 98%, respectively (Table 1).
(§2) The evaluation of the antimicrobial activity of the peptides was conducted using the CLSI’s broth microdilution method for bacterial susceptibility testing. For the screening phase, peptides were evaluated at a single 30 μM concentration, in triplicate and in three independent assays, against the E. coli ATCC® 8739, E. coli ATCC® 25922, S. aureus ATCC® 6538, or S. aureus ATCC® 29213 reference USP and CLSI strains. For the determination of MIC, MBC, or IC50, peptides or antibiotics were evaluated in concentrations between 1.56–200 µM. These evaluations were conducted in triplicate and in three independent assays, against the E. coli ATCC® 25922, S. aureus ATCC® 29213, E. faecalis ATCC® 49532, P. aeruginosa ATCC® 9027, and K. pneumoniae ATCC® BAA-1705, or the clinically isolated MDR strain. In detail, 1 mL of a glycerol stock solution of the ATCC® or clinically isolated bacterial strain was added to 9 mL of Mueller-Hinton Broth and incubated for 18 h, 180 rpm and 37 °C (Incubator 1000, Heidolph Instruments, Schwabach, Germany). After the incubation, 1 mL of the previous solution was transferred to a new recipient containing 9 mL of fresh Mueller-Hinton broth and incubated for 4 h, 180 rpm and 37 °C (Incubator 1000, Heidolph Instruments, Schwabach, Germany). During the second incubation, the peptides or the antibiotics were dissolved in PBS pH 7.20 in concentrations between 19.53–2500 µM (MC5 Micro Balance, Sartorius AG, Göttingen, Germany). An amount of 10 µL of either peptide or antibiotic was dispensed in triplicate in 96-well flat bottom culture plates, along with 10 µL of PBS (Negative activity control), BTM-P1 (Positive activity control), or 10 µL of Mueller-Hinton broth (Blank); then, 110 µL of Mueller-Hinton broth was poured in all wells. Following this, the bacteria were suspended in Mueller-Hinton broth up to a concentration of approximately 1.50 × 10^8 CFU/mL, as measured by optical density at 600 nm between 0.06 to 0.11 (0.5 McFarland standard), in a Multiskan SkyHigh spectrophotometer (ThermoFisher Scientific, Waltham, MA, USA). Amounts of 5 µL of the 1.50 × 10^8 CFU/mL suspension were added to each well (except for the blank) for a final well concentration of approximately 6 × 10^6 CFU/mL. The plate was incubated for 24 h at 37 °C (BE 500, Memmert GmbH, Büchenbach, Germany) and optical density was measured at 600 nm in a Multiskan SkyHigh spectrophotometer (ThermoFisher Scientific, Waltham, MI, USA). Following the measurement of optical density, plates were visually inspected to determine the MIC. Subsequently, 100 µL of the concentration associated to the MIC and 100 µL of the next higher concentration were added to Petri dishes containing Mueller-Hinton Agar. The dishes were then incubated for 24 h at 37 °C (BE 500, Memmert GmbH, Büchenbach, Germany). After incubation, the Petri dishes were visually inspected, and the MBC was determined in the absence of growth. IC50 values were interpolated from regressions with correlation values above 0.70. Growth inhibition percentages were calculated as follows: Growth inhibition %=1−AbsPEPTIDE or ANTIBIOTIC−Median AbsBLANK/Median AbsPBS−Median AbsBLANK×100

E. coli ATCC® 8739 = type: cell-based, Escherichia coli; settings: CLSI broth microdilution, Mueller-Hinton broth, peptide 30 µM, ~6 × 10^6 CFU/mL, 24 h 37 °C, OD600; triplicate, three independent assays; NA = no activity
Procedure: as §1, §2

S. aureus ATCC® 6538 = type: cell-based, Staphylococcus aureus; settings: CLSI broth microdilution, Mueller-Hinton broth, peptide 30 µM, ~6 × 10^6 CFU/mL, 24 h 37 °C, OD600; triplicate, three independent assays; NA = no activity
Procedure: as §1, §2

S. aureus ATCC® 29213 = type: cell-based, Staphylococcus aureus; settings: CLSI broth microdilution, Mueller-Hinton broth, peptide 30 µM, ~6 × 10^6 CFU/mL, 24 h 37 °C, OD600; triplicate, three independent assays; NA = no activity
Procedure: as §1, §2

P. aeruginosa ATCC® 9027 = type: cell-based, Pseudomonas aeruginosa
Procedure: (§3) The nine AMPs identified in the initial screening were evaluated at concentrations between 1.56–200 µM, against E. coli ATCC® 25922, S. aureus ATCC® 29213, E. faecalis ATCC® 49532, P. aeruginosa ATCC® 9027, and K. pneumoniae ATCC® BAA-1705 (Supplementary Figures S2–S6). […] Only PvAMP66 and PvAMP172 reached the MBC for S. aureus at 50 µM and 100 µM, respectively (Table 2).
as §2

E. coli ATCC® 25922 [3] = type: cell-based, Escherichia coli; settings: 24 h 37 °C
Procedure: as §3, §2

[4] = plating on Mueller-Hinton agar, absence of growth

`CC1(C)S[C@@H]2[C@H](NC(=O)[C@H](N)c3ccccc3)C(=O)N2[C@H]1C(=O)O` [ampicillin] gave an inhibition at 100 µM [1] of at most 20%.

For `Cc1onc(-c2c(Cl)cccc2Cl)c1C(=O)N[C@@H]1C(=O)N2[C@@H]1SC(C)(C)[C@@H]2C(=O)O` [dicloxacillin], the inhibition at 100 µM [1] was at most 20%.

`CN(C)[C@@H]1C(O)=C(C(N)=O)C(=O)[C@@]2(O)C(O)=C3C(=O)c4c(O)cccc4[C@@](C)(O)[C@H]3[C@H](O)[C@@H]12` [oxytetracycline] was tested, and the inhibition at 100 µM [1] was at most 20%.

Work on `[H]/N=C(/N)N[C@H]1[C@H](O)[C@@H](O)[C@H](O[C@@H]2O[C@@H](C)[C@](O)(C=O)[C@H]2O[C@@H]2O[C@@H](CO)[C@H](O)[C@@H](O)[C@@H]2NC)[C@@H](N/C(N)=N\[H])[C@@H]1O` [streptomycin] yielded an inhibition at 100 µM [1] of at most 20%.

With “CRRVCYKNR CVTYCRG (disulfide) [PvAMP169, predicted P. verdolaga AMP]” the “E. coli ATCC® 25922 (Inhibition %)” value (E. coli ATCC® 25922 [2]) was 55.69 ± 4.65 % and the inhibition (E. coli ATCC® 8739) was 13.6 ± 5.92%.

With FLGKNLG-NH2 [PvAMP15] the “S. aureus ATCC® 6538 (Inhibition %)” value (S. aureus ATCC® 6538) was 43.62 ± 10.56 % and the inhibition (S. aureus ATCC® 29213) was 27.5 ± 29.7%.

In the case of FSGNKLLPG-NH2 [PvAMP81], the “E. coli ATCC® 25922 (Inhibition %)” value (E. coli ATCC® 25922 [2]) is reported as 31.88 ± 2.18 % and the inhibition (E. coli ATCC® 8739) is reported as 8.57 ± 4.46%.

In the case of GRIFRLLRK-NH2 [PvAMP82], the MIC (P. aeruginosa ATCC® 9027; 1.56–200 µM, 24 h 37 °C, visual inspection, triplicate, three independent assays) is reported as 200 µM, the MBC (P. aeruginosa ATCC® 9027; [4]) is reported as 200 µM and the MIC (E. coli ATCC® 25922 [3]; 1.56–200 µM, visual inspection, triplicate, three independent assays) is reported as 100 µM. For the same compound, the MBC (E. coli ATCC® 25922 [3]; [4]) was 100 µM, the “S. aureus ATCC® 6538 (Inhibition %)” value (S. aureus ATCC® 6538) was 43.03 ± 6.37 % and the “S. aureus ATCC® 29213 (Inhibition %)” value (S. aureus ATCC® 29213) was 43.44 ± 10.24 %. For the same compound, the “E. coli ATCC® 25922 (Inhibition %)” value (E. coli ATCC® 25922 [2]) was 74.94 ± 14.27 % and the “E. coli ATCC® 8739 (Inhibition %)” value (E. coli ATCC® 8739) was 64.01 ± 4.28 %.
